From the CheMixHub ionic liquid set
± gives the uncertainty stated by the source.

Test: xn = mol fraction of the nth substance listed
Settings: 100 kPa

CC[n+]1ccn(C)c1.O=S(=O)([O-])O + Cc1ncc(CO)c(CO)c1O.Cl + O
viscosity (293.15 K, x2 = 0, x1 = 0.0009002): 1.048 ± 0.08 mPa·s | viscosity (293.15 K, x2 = 0, x1 = 0.001799): 1.067 ± 0.081 mPa·s | viscosity (293.15 K, x2 = 0, x1 = 0.002696): 1.083 ± 0.081 mPa·s | viscosity (293.15 K, x2 = 0.000265, x1 = 0.002695): 1.088 ± 0.081 mPa·s | viscosity (293.15 K, x2 = 0.0002728, x1 = 0.0008999): 1.052 ± 0.08 mPa·s | viscosity (293.15 K, x2 = 0.0002827, x1 = 0.001798): 1.072 ± 0.081 mPa·s | viscosity (293.15 K, x2 = 0.0004855, x1 = 0.0008998): 1.056 ± 0.08 mPa·s | viscosity (293.15 K, x2 = 0.0005353, x1 = 0.002694): 1.093 ± 0.081 mPa·s | viscosity (293.15 K, x2 = 0.0005469, x1 = 0.001798): 1.077 ± 0.081 mPa·s | viscosity (293.15 K, x2 = 0.0008161, x1 = 0.0008994): 1.062 ± 0.08 mPa·s | viscosity (293.15 K, x2 = 0.0008296, x1 = 0.002693): 1.099 ± 0.081 mPa·s | viscosity (293.15 K, x2 = 0.0008311, x1 = 0.001797): 1.082 ± 0.081 mPa·s | viscosity (293.15 K, x2 = 0.001096, x1 = 0.0008992): 1.067 ± 0.081 mPa·s | viscosity (293.15 K, x2 = 0.001123, x1 = 0.001797): 1.088 ± 0.081 mPa·s | viscosity (293.15 K, x2 = 0.001138, x1 = 0.002693): 1.106 ± 0.081 mPa·s | viscosity (293.15 K, x2 = 0.001364, x1 = 0.000899): 1.073 ± 0.081 mPa·s | viscosity (293.15 K, x2 = 0.001383, x1 = 0.001796): 1.094 ± 0.081 mPa·s | viscosity (293.15 K, x2 = 0.001395, x1 = 0.002692): 1.111 ± 0.081 mPa·s | viscosity (293.15 K, x2 = 0.001638, x1 = 0.0008987): 1.078 ± 0.081 mPa·s | viscosity (293.15 K, x2 = 0.001641, x1 = 0.001796): 1.099 ± 0.081 mPa·s | viscosity (293.15 K, x2 = 0.001656, x1 = 0.002691): 1.117 ± 0.081 mPa·s | viscosity (298.15 K, x2 = 0, x1 = 0.0009002): 0.945 ± 0.08 mPa·s | viscosity (298.15 K, x2 = 0, x1 = 0.001799): 0.948 ± 0.08 mPa·s | viscosity (298.15 K, x2 = 0, x1 = 0.002696): 0.963 ± 0.08 mPa·s | viscosity (298.15 K, x2 = 0.000265, x1 = 0.002695): 0.968 ± 0.08 mPa·s | viscosity (298.15 K, x2 = 0.0002728, x1 = 0.0008999): 0.949 ± 0.08 mPa·s | viscosity (298.15 K, x2 = 0.0002827, x1 = 0.001798): 0.953 ± 0.08 mPa·s | viscosity (298.15 K, x2 = 0.0004855, x1 = 0.0008998): 0.953 ± 0.08 mPa·s | viscosity (298.15 K, x2 = 0.0005353, x1 = 0.002694): 0.973 ± 0.08 mPa·s | viscosity (298.15 K, x2 = 0.0005469, x1 = 0.001798): 0.958 ± 0.08 mPa·s | viscosity (298.15 K, x2 = 0.0008161, x1 = 0.0008994): 0.959 ± 0.08 mPa·s | viscosity (298.15 K, x2 = 0.0008296, x1 = 0.002693): 0.979 ± 0.08 mPa·s | viscosity (298.15 K, x2 = 0.0008311, x1 = 0.001797): 0.963 ± 0.08 mPa·s | viscosity (298.15 K, x2 = 0.001096, x1 = 0.0008992): 0.964 ± 0.08 mPa·s | viscosity (298.15 K, x2 = 0.001123, x1 = 0.001797): 0.969 ± 0.08 mPa·s | viscosity (298.15 K, x2 = 0.001138, x1 = 0.002693): 0.986 ± 0.08 mPa·s | viscosity (298.15 K, x2 = 0.001364, x1 = 0.000899): 0.97 ± 0.08 mPa·s | viscosity (298.15 K, x2 = 0.001383, x1 = 0.001796): 0.976 ± 0.08 mPa·s | viscosity (298.15 K, x2 = 0.001395, x1 = 0.002692): 0.992 ± 0.08 mPa·s | viscosity (298.15 K, x2 = 0.001638, x1 = 0.0008987): 0.976 ± 0.08 mPa·s | viscosity (298.15 K, x2 = 0.001641, x1 = 0.001796): 0.981 ± 0.08 mPa·s | viscosity (298.15 K, x2 = 0.001656, x1 = 0.002691): 0.998 ± 0.08 mPa·s | viscosity (303.15 K, x2 = 0, x1 = 0.0009002): 0.835 ± 0.08 mPa·s | viscosity (303.15 K, x2 = 0, x1 = 0.001799): 0.855 ± 0.08 mPa·s | viscosity (303.15 K, x2 = 0, x1 = 0.002696): 0.862 ± 0.08 mPa·s | viscosity (303.15 K, x2 = 0.000265, x1 = 0.002695): 0.867 ± 0.08 mPa·s | viscosity (303.15 K, x2 = 0.0002728, x1 = 0.0008999): 0.839 ± 0.08 mPa·s | viscosity (303.15 K, x2 = 0.0002827, x1 = 0.001798): 0.86 ± 0.08 mPa·s | viscosity (303.15 K, x2 = 0.0004855, x1 = 0.0008998): 0.843 ± 0.08 mPa·s | viscosity (303.15 K, x2 = 0.0005353, x1 = 0.002694): 0.872 ± 0.08 mPa·s | viscosity (303.15 K, x2 = 0.0005469, x1 = 0.001798): 0.865 ± 0.08 mPa·s | viscosity (303.15 K, x2 = 0.0008161, x1 = 0.0008994): 0.849 ± 0.08 mPa·s | viscosity (303.15 K, x2 = 0.0008296, x1 = 0.002693): 0.878 ± 0.08 mPa·s | viscosity (303.15 K, x2 = 0.0008311, x1 = 0.001797): 0.87 ± 0.08 mPa·s | viscosity (303.15 K, x2 = 0.001096, x1 = 0.0008992): 0.854 ± 0.08 mPa·s | viscosity (303.15 K, x2 = 0.001123, x1 = 0.001797): 0.877 ± 0.08 mPa·s | viscosity (303.15 K, x2 = 0.001138, x1 = 0.002693): 0.884 ± 0.08 mPa·s | viscosity (303.15 K, x2 = 0.001364, x1 = 0.000899): 0.86 ± 0.08 mPa·s | viscosity (303.15 K, x2 = 0.001383, x1 = 0.001796): 0.882 ± 0.08 mPa·s | viscosity (303.15 K, x2 = 0.001395, x1 = 0.002692): 0.889 ± 0.08 mPa·s | viscosity (303.15 K, x2 = 0.001638, x1 = 0.0008987): 0.866 ± 0.08 mPa·s | viscosity (303.15 K, x2 = 0.001641, x1 = 0.001796): 0.888 ± 0.08 mPa·s | viscosity (303.15 K, x2 = 0.001656, x1 = 0.002691): 0.896 ± 0.08 mPa·s | viscosity (308.15 K, x2 = 0, x1 = 0.0009002): 0.758 ± 0.08 mPa·s | viscosity (308.15 K, x2 = 0, x1 = 0.001799): 0.772 ± 0.08 mPa·s | viscosity (308.15 K, x2 = 0, x1 = 0.002696): 0.776 ± 0.08 mPa·s | viscosity (308.15 K, x2 = 0.000265, x1 = 0.002695): 0.781 ± 0.08 mPa·s | viscosity (308.15 K, x2 = 0.0002728, x1 = 0.0008999): 0.762 ± 0.08 mPa·s | viscosity (308.15 K, x2 = 0.0002827, x1 = 0.001798): 0.777 ± 0.08 mPa·s | viscosity (308.15 K, x2 = 0.0004855, x1 = 0.0008998): 0.766 ± 0.08 mPa·s | viscosity (308.15 K, x2 = 0.0005353, x1 = 0.002694): 0.786 ± 0.08 mPa·s | viscosity (308.15 K, x2 = 0.0005469, x1 = 0.001798): 0.782 ± 0.08 mPa·s | viscosity (308.15 K, x2 = 0.0008161, x1 = 0.0008994): 0.772 ± 0.08 mPa·s | viscosity (308.15 K, x2 = 0.0008296, x1 = 0.002693): 0.792 ± 0.08 mPa·s | viscosity (308.15 K, x2 = 0.0008311, x1 = 0.001797): 0.787 ± 0.08 mPa·s | viscosity (308.15 K, x2 = 0.001096, x1 = 0.0008992): 0.777 ± 0.08 mPa·s | viscosity (308.15 K, x2 = 0.001123, x1 = 0.001797): 0.793 ± 0.08 mPa·s | viscosity (308.15 K, x2 = 0.001138, x1 = 0.002693): 0.797 ± 0.08 mPa·s | viscosity (308.15 K, x2 = 0.001364, x1 = 0.000899): 0.784 ± 0.08 mPa·s | viscosity (308.15 K, x2 = 0.001383, x1 = 0.001796): 0.798 ± 0.08 mPa·s | viscosity (308.15 K, x2 = 0.001395, x1 = 0.002692): 0.803 ± 0.08 mPa·s | viscosity (308.15 K, x2 = 0.001638, x1 = 0.0008987): 0.79 ± 0.08 mPa·s | viscosity (308.15 K, x2 = 0.001641, x1 = 0.001796): 0.805 ± 0.08 mPa·s | viscosity (308.15 K, x2 = 0.001656, x1 = 0.002691): 0.808 ± 0.08 mPa·s | viscosity (313.15 K, x2 = 0, x1 = 0.0009002): 0.693 ± 0.08 mPa·s | viscosity (313.15 K, x2 = 0, x1 = 0.001799): 0.702 ± 0.08 mPa·s | viscosity (313.15 K, x2 = 0, x1 = 0.002696): 0.707 ± 0.08 mPa·s | viscosity (313.15 K, x2 = 0.000265, x1 = 0.002695): 0.712 ± 0.08 mPa·s | viscosity (313.15 K, x2 = 0.0002728, x1 = 0.0008999): 0.697 ± 0.08 mPa·s | viscosity (313.15 K, x2 = 0.0002827, x1 = 0.001798): 0.707 ± 0.08 mPa·s | viscosity (313.15 K, x2 = 0.0004855, x1 = 0.0008998): 0.701 ± 0.08 mPa·s | viscosity (313.15 K, x2 = 0.0005353, x1 = 0.002694): 0.717 ± 0.08 mPa·s | viscosity (313.15 K, x2 = 0.0005469, x1 = 0.001798): 0.712 ± 0.08 mPa·s | viscosity (313.15 K, x2 = 0.0008161, x1 = 0.0008994): 0.707 ± 0.08 mPa·s | viscosity (313.15 K, x2 = 0.0008296, x1 = 0.002693): 0.723 ± 0.08 mPa·s | viscosity (313.15 K, x2 = 0.0008311, x1 = 0.001797): 0.717 ± 0.08 mPa·s | viscosity (313.15 K, x2 = 0.001096, x1 = 0.0008992): 0.712 ± 0.08 mPa·s | viscosity (313.15 K, x2 = 0.001123, x1 = 0.001797): 0.723 ± 0.08 mPa·s | viscosity (313.15 K, x2 = 0.001138, x1 = 0.002693): 0.729 ± 0.08 mPa·s | viscosity (313.15 K, x2 = 0.001364, x1 = 0.000899): 0.718 ± 0.08 mPa·s | viscosity (313.15 K, x2 = 0.001383, x1 = 0.001796): 0.728 ± 0.08 mPa·s | viscosity (313.15 K, x2 = 0.001395, x1 = 0.002692): 0.734 ± 0.08 mPa·s | viscosity (313.15 K, x2 = 0.001638, x1 = 0.0008987): 0.724 ± 0.08 mPa·s | viscosity (313.15 K, x2 = 0.001641, x1 = 0.001796): 0.734 ± 0.08 mPa·s | viscosity (313.15 K, x2 = 0.001656, x1 = 0.002691): 0.739 ± 0.08 mPa·s
